Experimental data as given in patent US9169195B2, “Amides, use of amides as solvents for organic compounds, compositions and emulsions containing amides, and method for treating a plant” (AKZO NOBEL CHEMICALS INTERNATIONAL B.V., priority 2009, dated 2015).
Like-named read-outs stand apart in the source and are kept apart here.

What was measured:
[1] = Solubility of active ingredients in the amide solvents (solvent added until dissolved, stable 24 h)
Experimental: Various agriculturally active ingredients were dissolved in both N-methyl-N-(2-propylheptyl)-formamide and N-methyl-N-(n-decyl)-formamide in order to evaluate the solubility of the active ingredients in the amides.
This was done by adding the active ingredient (AI) to a beaker and thereafter adding the solvent until the entire AI had been dissolved. The solutions were continually stirred at a temperature of 23° C. during the experiments. When everything had been dissolved, the beakers were left without stirring for 24 h to see if the solution was stable (i.e. no crystallization).

[2] = numbers taken from the e-Pesticide Manual v 4.0; cited from earlier work
[3] = Emulsion dilution: crystallisation of tebuconazole in emulsions, ocular inspection; assay type: physicochemical; parameters: key: +: no crystals visible; −: crystals visible; details: 5° C.
Experimental: Formulations containing 250 g/l of tebuconazole was formulated together with 100 g/l of surfactant blend (CaDDBS and tristyrylphenol ethoxylate (15 EO), 50:50) and diluted to a final volume of one liter with each one of the solvents N,N-dimethyl decanamide, N-methyl-N-octyl propanamide, N-methyl-N-(2-propylheptyl) formamide or N-methyl-N-(n-decyl) formamide. Each formulation was emulsified into tap water at ambient temperature (˜22° C.) in the volume ratio (formulation:water) 1:100, 1:150, 1:200 and 1:500 dilution. The emulsions were poured into 100 ml conical glass centrifuge tubes and monitored over time at three different temperatures 5, 20 and 40° C. for observation of crystallisation of active ingredient (tebuconazole).
Crystallization was judged by ocular inspection with the naked eye, and in the table below, the following is used: […]

[4] = solvent N-methyl-N-(2-propylheptyl) formamide, 23° C.
[5] = solvent N-methyl-N-(n-decyl) formamide, 23° C.
[6] = 3 h, formulation:tap water 1:100, 250 g/l tebuconazole
[7] = 3 h, formulation:tap water 1:150, 250 g/l tebuconazole
[8] = 3 h, formulation:tap water 1:200, 250 g/l tebuconazole
[9] = 3 h, formulation:tap water 1:500, 250 g/l tebuconazole
[10] = 6 h, formulation:tap water 1:100, 250 g/l tebuconazole
[11] = 6 h, formulation:tap water 1:150, 250 g/l tebuconazole
[12] = 6 h, formulation:tap water 1:200, 250 g/l tebuconazole
[13] = 6 h, formulation:tap water 1:500, 250 g/l tebuconazole
[14] = 12 h, formulation:tap water 1:100, 250 g/l tebuconazole
[15] = 12 h, formulation:tap water 1:150, 250 g/l tebuconazole
[16] = 12 h, formulation:tap water 1:200, 250 g/l tebuconazole
[17] = 12 h, formulation:tap water 1:500, 250 g/l tebuconazole
[18] = 24 h, formulation:tap water 1:100, 250 g/l tebuconazole
[19] = 24 h, formulation:tap water 1:150, 250 g/l tebuconazole
[20] = 24 h, formulation:tap water 1:200, 250 g/l tebuconazole
[21] = 24 h, formulation:tap water 1:500, 250 g/l tebuconazole
[22] = 36 h, formulation:tap water 1:100, 250 g/l tebuconazole
[23] = 36 h, formulation:tap water 1:150, 250 g/l tebuconazole
[24] = 36 h, formulation:tap water 1:200, 250 g/l tebuconazole
[25] = 36 h, formulation:tap water 1:500, 250 g/l tebuconazole
[26] = 48 h, formulation:tap water 1:100, 250 g/l tebuconazole
[27] = 48 h, formulation:tap water 1:150, 250 g/l tebuconazole
[28] = 48 h, formulation:tap water 1:200, 250 g/l tebuconazole
[29] = 48 h, formulation:tap water 1:500, 250 g/l tebuconazole
[30] = 72 h, formulation:tap water 1:100, 250 g/l tebuconazole
[31] = 72 h, formulation:tap water 1:150, 250 g/l tebuconazole
[32] = 72 h, formulation:tap water 1:200, 250 g/l tebuconazole
[33] = 72 h, formulation:tap water 1:500, 250 g/l tebuconazole
[34] = 96 h, formulation:tap water 1:100, 250 g/l tebuconazole
[35] = 96 h, formulation:tap water 1:150, 250 g/l tebuconazole
[36] = 96 h, formulation:tap water 1:200, 250 g/l tebuconazole
[37] = 96 h, formulation:tap water 1:500, 250 g/l tebuconazole

SMILES | Solubility in N-Methyl-N-(2-propylheptyl) formamide [1, 4] [g Al/100 g solvent] | Crystallisation of tebuconazole in emulsion [3, 6] | Crystallisation of tebuconazole in emulsion [3, 7] | Crystallisation of tebuconazole in emulsion [3, 8] | Crystallisation of tebuconazole in emulsion [3, 9] | Crystallisation of tebuconazole in emulsion [3, 10] | Crystallisation of tebuconazole in emulsion [3, 11] | Crystallisation of tebuconazole in emulsion [3, 12] | Crystallisation of tebuconazole in emulsion [3, 13] | Crystallisation of tebuconazole in emulsion [3, 14] | Crystallisation of tebuconazole in emulsion [3, 15] | Crystallisation of tebuconazole in emulsion [3, 16] | Crystallisation of tebuconazole in emulsion [3, 17] | Crystallisation of tebuconazole in emulsion [3, 18] | Crystallisation of tebuconazole in emulsion [3, 19] | Crystallisation of tebuconazole in emulsion [3, 20] | Crystallisation of tebuconazole in emulsion [3, 21] | Crystallisation of tebuconazole in emulsion [3, 22] | Crystallisation of tebuconazole in emulsion [3, 23] | Crystallisation of tebuconazole in emulsion [3, 24] | further results
O=C(O)COc1ccc(Cl)cc1Cl [2,4-D acid] | 41 |  |  |  |  |  |  |  |  |  |  |  |  |  |  |  |  |  |  |  | Solubility in N-Methyl-N-(n-decyl) formamide [1, 5]: >50 g Al/100 g solvent; Solubility in Water [2]: 0.0311 g Al/100 g solvent
CCCCCCCCN(C)C(=O)CC [N-methyl-N-octyl propanamide] |  | + | + | + | + | + | + | + | − | + | + | − | − | + | + | − | − | + | + | − | Crystallisation of tebuconazole in emulsion [3, 25]: −; Crystallisation of tebuconazole in emulsion [3, 26]: +; Crystallisation of tebuconazole in emulsion [3, 27]: −; Crystallisation of tebuconazole in emulsion [3, 28]: −; Crystallisation of tebuconazole in emulsion [3, 29]: −; Crystallisation of tebuconazole in emulsion [3, 30]: +; Crystallisation of tebuconazole in emulsion [3, 31]: −; Crystallisation of tebuconazole in emulsion [3, 32]: −; Crystallisation of tebuconazole in emulsion [3, 33]: −; Crystallisation of tebuconazole in emulsion [3, 34]: +; Crystallisation of tebuconazole in emulsion [3, 35]: −; Crystallisation of tebuconazole in emulsion [3, 36]: −; Crystallisation of tebuconazole in emulsion [3, 37]: −
CCCCCC(CCC)CN(C)C=O (stereo not drawn) [N-methyl-N-(2-propylheptyl) formamide, N-methyl-N-(2-propylheptyl)-formamide] |  | + | + | + | + | + | + | + | + | + | + | + | + | + | + | + | + | + | + | + | Crystallisation of tebuconazole in emulsion [3, 25]: +; Crystallisation of tebuconazole in emulsion [3, 26]: +; Crystallisation of tebuconazole in emulsion [3, 27]: +; Crystallisation of tebuconazole in emulsion [3, 28]: +; Crystallisation of tebuconazole in emulsion [3, 29]: +; Crystallisation of tebuconazole in emulsion [3, 30]: +; Crystallisation of tebuconazole in emulsion [3, 31]: +; Crystallisation of tebuconazole in emulsion [3, 32]: +; Crystallisation of tebuconazole in emulsion [3, 33]: +; Crystallisation of tebuconazole in emulsion [3, 34]: +; Crystallisation of tebuconazole in emulsion [3, 35]: +; Crystallisation of tebuconazole in emulsion [3, 36]: +; Crystallisation of tebuconazole in emulsion [3, 37]: +
CON=C(C(=O)OC)c1ccccc1CON=C(C)c1cccc(C(F)(F)F)c1 [Trifloxystrobin] |  |  |  |  |  |  |  |  |  |  |  |  |  |  |  |  |  |  |  |  | Solubility in N-Methyl-N-(2-propylheptyl) formamide [1]: 23 g Al/100 g solvent; Solubility in N-Methyl-N-(n-decyl) formamide [1]: 23 g Al/100 g solvent
Cc1c(COC(=O)[C@@H]2[C@H](/C=C(\Cl)C(F)(F)F)C2(C)C)cccc1-c1ccccc1 (racemic) [Bifenthrin] | >50 |  |  |  |  |  |  |  |  |  |  |  |  |  |  |  |  |  |  |  | Solubility in N-Methyl-N-(n-decyl) formamide [1, 5]: >50 g Al/100 g solvent; Solubility in Water [2]: <0.0000001 g Al/100 g solvent
Cc1ccc(/N=C/N(C)/C=N/c2ccc(C)cc2C)c(C)c1 [Amitraz] | >50 |  |  |  |  |  |  |  |  |  |  |  |  |  |  |  |  |  |  |  | Solubility in N-Methyl-N-(n-decyl) formamide [1, 5]: >50 g Al/100 g solvent; Solubility in Water [2]: <0.00001 g Al/100 g solvent
CCCCCCCCCC(=O)N(C)C [N,N-dimethyl decanamide] |  | + | + | + | + | + | + | + | − | + | + | − | − | + | − | − | − | + | − | − | Crystallisation of tebuconazole in emulsion [3, 25]: −; Crystallisation of tebuconazole in emulsion [3, 26]: +; Crystallisation of tebuconazole in emulsion [3, 27]: −; Crystallisation of tebuconazole in emulsion [3, 28]: −; Crystallisation of tebuconazole in emulsion [3, 29]: −; Crystallisation of tebuconazole in emulsion [3, 30]: +; Crystallisation of tebuconazole in emulsion [3, 31]: −; Crystallisation of tebuconazole in emulsion [3, 32]: −; Crystallisation of tebuconazole in emulsion [3, 33]: −; Crystallisation of tebuconazole in emulsion [3, 34]: +; Crystallisation of tebuconazole in emulsion [3, 35]: −; Crystallisation of tebuconazole in emulsion [3, 36]: −; Crystallisation of tebuconazole in emulsion [3, 37]: −
CC(C)(C)C(O)(CCc1ccc(Cl)cc1)Cn1cncn1 (stereo not drawn) [Tebuconazole] | 48 |  |  |  |  |  |  |  |  |  |  |  |  |  |  |  |  |  |  |  | Solubility in N-Methyl-N-(n-decyl) formamide [1]: 48 g Al/100 g solvent
CCCCCCCCCCN(C)C=O [N-methyl-N-(n-decyl) formamide] |  | + | + | + | + | + | + | + | + | + | + | + | + | + | + | + | + | + | + | + | Crystallisation of tebuconazole in emulsion [3, 25]: +; Crystallisation of tebuconazole in emulsion [3, 26]: +; Crystallisation of tebuconazole in emulsion [3, 27]: +; Crystallisation of tebuconazole in emulsion [3, 28]: +; Crystallisation of tebuconazole in emulsion [3, 29]: +; Crystallisation of tebuconazole in emulsion [3, 30]: +; Crystallisation of tebuconazole in emulsion [3, 31]: +; Crystallisation of tebuconazole in emulsion [3, 32]: +; Crystallisation of tebuconazole in emulsion [3, 33]: +; Crystallisation of tebuconazole in emulsion [3, 34]: +; Crystallisation of tebuconazole in emulsion [3, 35]: +; Crystallisation of tebuconazole in emulsion [3, 36]: +; Crystallisation of tebuconazole in emulsion [3, 37]: +
